The IC50 is the concentration that gives 50% inhibition. For orientation: EC50 means the concentration at which the effect is half-maximal. By AC50 is commonly meant the midpoint of the concentration-response curve, whichever way the signal moves.

Calls of active or inactive are those of the source.

Among the data in ChEMBL document CHEMBL1201862, “PubChem BioAssay data set” (2004) are IC50, EC50 and AC50 values, retold here.

For experiment [1], the target named is Glyceraldehyde-3-phosphate dehydrogenase (Homo sapiens, UniProt P04406).
Experiment [2] addresses T1, Bcl-2-related protein A1 (Mus musculus, UniProt Q07440).
T1 sequence (Q07440 whole entry): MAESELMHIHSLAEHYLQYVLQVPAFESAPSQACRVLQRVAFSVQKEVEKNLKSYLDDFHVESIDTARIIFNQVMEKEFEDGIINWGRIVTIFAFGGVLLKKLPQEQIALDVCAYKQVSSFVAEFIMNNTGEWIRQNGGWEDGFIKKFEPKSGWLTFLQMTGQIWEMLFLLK
Put plainly: Bfl-1 binding inhibitors, SAR follow-up, biochemical, fluorescence polarization (AID 1070). A general note: In fluorescence polarisation assays a small probe gives low polarisation when free and higher when bound to something large.

Experiment [3] deals with T1, Bcl-2-related protein A1. Put plainly: Bfl-1 inhibitors blocking BH3 peptide binding, confirmation, biochemical, TR-FRET, mouse Bfl-1 (AID 621).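 Also: TR-FRET binding of GST-Bfl-1 to FITC-labelled Bid peptide via terbium antibody.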 A general note: Time-resolved FRET reads energy transfer from a long-lived donor to a nearby acceptor.
Experiment [4] addresses Procathepsin L (Homo sapiens, UniProt P07711). Description: cathepsin L inhibitors, dose response, counter-screen for M1/M17 aminopeptidase inhibitor project, biochemical, QFRET, 1536-well (AID 2214). (In general: The purpose of a counterscreen is to sort out artefacts and off-target activity.)
Experiment [5] has as its target T2, Leucine aminopeptidase (Plasmodium falciparum 3D7, UniProt Q8IL11).
T2 sequence (Q8IL11 whole entry): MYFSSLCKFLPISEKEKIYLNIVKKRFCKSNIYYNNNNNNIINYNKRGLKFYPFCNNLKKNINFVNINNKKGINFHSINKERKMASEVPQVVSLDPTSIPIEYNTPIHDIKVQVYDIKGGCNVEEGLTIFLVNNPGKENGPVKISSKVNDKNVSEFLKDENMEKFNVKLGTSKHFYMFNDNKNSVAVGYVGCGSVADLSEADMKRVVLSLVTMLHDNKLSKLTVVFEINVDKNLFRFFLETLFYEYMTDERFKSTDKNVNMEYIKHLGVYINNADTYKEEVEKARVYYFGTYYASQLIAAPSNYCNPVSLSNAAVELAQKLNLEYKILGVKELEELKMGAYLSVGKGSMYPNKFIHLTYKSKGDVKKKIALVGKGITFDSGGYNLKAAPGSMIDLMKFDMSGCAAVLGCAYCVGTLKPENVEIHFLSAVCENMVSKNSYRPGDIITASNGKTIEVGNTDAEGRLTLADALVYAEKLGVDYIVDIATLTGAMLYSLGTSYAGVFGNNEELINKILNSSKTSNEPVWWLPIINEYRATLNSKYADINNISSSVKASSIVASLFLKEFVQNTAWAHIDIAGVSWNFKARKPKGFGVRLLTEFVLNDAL
Description: P. falciparum M17LAP inhibitors, primary screen, biochemical, fluorogenic H-Leu-NHMec substrate, 1536-well (AID 1619). In kind it is functional.

Experiment [6] addresses T3, Aspartyl aminopeptidase (Plasmodium falciparum 3D7, UniProt Q8I2J3).
T3 sequence (Q8I2J3 whole entry): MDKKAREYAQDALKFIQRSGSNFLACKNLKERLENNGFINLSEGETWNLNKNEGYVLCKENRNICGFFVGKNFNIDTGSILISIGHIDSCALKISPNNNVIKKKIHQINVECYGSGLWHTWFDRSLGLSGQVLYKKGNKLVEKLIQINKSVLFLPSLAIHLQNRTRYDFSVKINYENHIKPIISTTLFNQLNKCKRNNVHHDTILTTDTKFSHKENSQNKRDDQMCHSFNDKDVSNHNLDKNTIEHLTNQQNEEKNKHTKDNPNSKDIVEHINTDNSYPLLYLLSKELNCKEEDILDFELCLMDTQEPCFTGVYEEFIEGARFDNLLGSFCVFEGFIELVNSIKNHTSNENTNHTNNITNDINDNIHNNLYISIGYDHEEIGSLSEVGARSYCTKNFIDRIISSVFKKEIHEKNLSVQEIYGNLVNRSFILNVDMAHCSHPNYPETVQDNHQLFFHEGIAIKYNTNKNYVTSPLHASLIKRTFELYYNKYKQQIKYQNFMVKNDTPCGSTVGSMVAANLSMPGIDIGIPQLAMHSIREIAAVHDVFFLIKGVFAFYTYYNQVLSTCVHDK
Description: Counterscreen for inhibitors of M1 and M17 aminopeptidases: QFRET-based biochemical high throughput dose response assay for inhibitors of the Plasmodium falciparum M18 Aspartyl Aminopeptidase (PFM18AAP). [Related PubChem assays: 1619 (Screening assay (M17LAP inhibitors).), 1445 (Screening assay (M1AAP inhibitors).)].

In experiment [7] the test system is BJ. Put plainly: cytotoxicity toward BJ-TERT fibroblasts, dose response, cell-based, RAS-independent, luminescence (AID 1933). In kind it is functional. The note with it: Homo sapiens.
In experiment [8] the test system is BJ. Put plainly: cells. In kind it is functional, cell-based. The note with it: Homo sapiens.
Experiment [9] can be described thus: MC4R antagonists, dose response, counter-screen for LGR2 antagonist project, cell-based, plate reader, cherry pick (AID 743444).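 Also: transfected HEK 293 cells stimulated with alpha-MSH peptide; potency of inhibitors of the alpha-MSH evoked signal.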 The class given is functional.
A short description of experiment [10]: Luminescence-based counterscreen assay for KLF5 inhibitors: dose response cell-based high throughput screening assay to identify cytotoxic compounds using the IEC-6 intestinal epithelial cell line. [Related pubchem assays: 1700 (Primary screen.), 1834 (Confirmation screen.), 1858 (Summary AID.), 1905 (Counterscreen.)]. The class given is functional.
The nature of experiment [11]: HEK293 cell cytotoxicity, dose response, cytotoxicity control, plate reader, cherry-picked samples (AID 743446). The class given is functional, cell-based.
A short description of experiment [12]: Luminescence Cell-Based Dose Confirmation HTS to Identify Inhibitors of Platelet Dense Granule Release. [Related pubchem assays: 1663 (Primary HTS), 1678 (Summary of Project)]. The class given is functional.
Experiment [13] in a line: inhibitors of SNCA 5'UTR-driven reporter translation, confirmation, H4 neuroglioma cells, luminescence (AID 1988). The class given is functional, cell-based.
A short description of experiment [14]: A549 cell cytotoxicity, dose response, cytotoxicity control, plate reader, cherry-pick, antagonist series (AID 743412). In kind it is functional, cell-based.
In experiment [15] the test system is BJ. Put plainly: cytotoxicity toward BJ-TERT-LT-ST fibroblasts, dose response, cell-based, RAS-independent, luminescence (AID 1935).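 Also: BJ fibroblasts immortalized with TERT plus LT and ST oncogenes.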 In kind it is functional. The note with it: Homo sapiens.
A short description of experiment [16]: inhibitors of firefly luciferase expression or activity, dose response, H4 neuroglioma cells, luminescence (AID 1990). The class given is functional, cell-based.
Experiment [17] deals with Luciferin 4-monooxygenase (Photinus pyralis, UniProt P08659). Description: firefly luciferase enzyme inhibitors, dose response, biochemical, luminescence (AID 1891).
Experiment [18] can be described thus: HepG2 cell cytotoxicity, dose response, cytotoxicity control, plate reader, cherry-pick, antagonist series (AID 743416). In kind it is functional, cell-based.
A short description of experiment [19]: LGR2 antagonists, dose response, cell-based, HEK293, CRE-luciferase reporter, cherry pick, set 2 (AID 743343).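 Also: transfected cells were stimulated with diluted bursicon conditioned medium after compound addition.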 The class given is functional.
Experiment [20] can be described thus: cytotoxicity toward DRD oncogenic fibroblasts, dose response, cell-based, non-viral oncogenic, luminescence (AID 1934). The class given is functional. Particulars: Homo sapiens.
The target of experiment [21] is Peroxisome proliferator-activated receptor gamma/Nuclear receptor coactivator 3 (Homo sapiens, UniProt P37231). The class given is functional.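 Also: agonist potency for raising coactivator recruitment to the receptor.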
The target of experiment [22] is FAD-linked sulfhydryl oxidase ALR (Homo sapiens, UniProt P55789). Description: inhibitors of human ALR sulfhydryl oxidase, dose response, biochemical, H2O2 detection, luminescence, cherry-pick (AID 493248).
The target in experiment [23] is Peroxisome proliferator-activated receptor gamma/Nuclear receptor coactivator 2 (Homo sapiens, UniProt P37231). In kind it is functional.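 Also: agonist potency for raising coactivator recruitment to the receptor.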
The target of experiment [24] is Peroxisome proliferator-activated receptor gamma/Nuclear receptor coactivator 1 (Homo sapiens, UniProt P37231). In kind it is functional.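 Also: agonist potency as compounds enhance coactivator SRC-1 recruitment to PPARgamma.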
The target of experiment [25] is Induced myeloid leukemia cell differentiation protein Mcl-1 (Homo sapiens, UniProt Q07820). Put plainly: MCL1-BIM BH3 interaction inhibitors, dose response, biochemical, fluorescence polarization, BIM-BH3 peptide, 1536-well (AID 2217).
Experiment [26] concerns the target Bcl-2-like protein 1 (Homo sapiens, UniProt Q07817). Description: BCL-XL inhibitors, dose response, selectivity assay for MCL1 inhibitor project, biochemical, fluorescence polarization, 1536-well (AID 2218).
Experiment [27] deals with Heat shock protein HSP 90-alpha (Homo sapiens, UniProt P07900). The class given is functional, organism-based.

Glyceraldehyde-3-phosphate dehydrogenase, sequence (P04406 whole entry): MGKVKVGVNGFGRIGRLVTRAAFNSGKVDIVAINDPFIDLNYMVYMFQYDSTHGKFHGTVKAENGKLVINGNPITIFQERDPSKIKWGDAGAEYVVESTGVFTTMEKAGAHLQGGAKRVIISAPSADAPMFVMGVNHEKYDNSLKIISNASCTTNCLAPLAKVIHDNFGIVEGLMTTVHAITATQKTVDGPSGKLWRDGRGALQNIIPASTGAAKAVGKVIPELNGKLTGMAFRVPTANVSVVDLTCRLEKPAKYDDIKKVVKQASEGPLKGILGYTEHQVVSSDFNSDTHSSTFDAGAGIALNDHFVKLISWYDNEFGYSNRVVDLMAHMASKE
Procathepsin L, sequence (P07711 whole entry): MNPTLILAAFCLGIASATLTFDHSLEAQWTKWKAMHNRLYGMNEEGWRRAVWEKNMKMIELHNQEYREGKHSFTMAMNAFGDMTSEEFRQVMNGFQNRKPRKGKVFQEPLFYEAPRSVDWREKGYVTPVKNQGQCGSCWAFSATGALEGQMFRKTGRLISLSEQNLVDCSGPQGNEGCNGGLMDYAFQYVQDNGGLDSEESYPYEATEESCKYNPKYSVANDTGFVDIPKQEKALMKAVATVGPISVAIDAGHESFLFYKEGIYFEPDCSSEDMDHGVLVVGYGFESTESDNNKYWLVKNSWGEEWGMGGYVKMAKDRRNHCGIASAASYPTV
Peroxisome proliferator-activated receptor gamma/Nuclear receptor coactivator 1, sequence (P37231 whole entry): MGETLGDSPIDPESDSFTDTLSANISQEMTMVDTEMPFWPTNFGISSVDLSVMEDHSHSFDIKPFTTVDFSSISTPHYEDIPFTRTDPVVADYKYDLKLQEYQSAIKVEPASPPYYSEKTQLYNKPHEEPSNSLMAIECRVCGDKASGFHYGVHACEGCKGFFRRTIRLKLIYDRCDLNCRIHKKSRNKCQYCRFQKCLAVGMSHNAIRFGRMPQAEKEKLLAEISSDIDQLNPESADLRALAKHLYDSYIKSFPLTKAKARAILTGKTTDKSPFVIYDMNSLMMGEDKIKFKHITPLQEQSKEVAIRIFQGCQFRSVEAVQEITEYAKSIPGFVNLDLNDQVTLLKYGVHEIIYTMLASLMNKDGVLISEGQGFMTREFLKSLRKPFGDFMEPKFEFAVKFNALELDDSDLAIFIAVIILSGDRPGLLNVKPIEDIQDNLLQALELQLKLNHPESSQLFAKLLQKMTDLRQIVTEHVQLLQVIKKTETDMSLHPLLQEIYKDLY
Peroxisome proliferator-activated receptor gamma/Nuclear receptor coactivator 1, sequence (Q15788 whole entry, further chain): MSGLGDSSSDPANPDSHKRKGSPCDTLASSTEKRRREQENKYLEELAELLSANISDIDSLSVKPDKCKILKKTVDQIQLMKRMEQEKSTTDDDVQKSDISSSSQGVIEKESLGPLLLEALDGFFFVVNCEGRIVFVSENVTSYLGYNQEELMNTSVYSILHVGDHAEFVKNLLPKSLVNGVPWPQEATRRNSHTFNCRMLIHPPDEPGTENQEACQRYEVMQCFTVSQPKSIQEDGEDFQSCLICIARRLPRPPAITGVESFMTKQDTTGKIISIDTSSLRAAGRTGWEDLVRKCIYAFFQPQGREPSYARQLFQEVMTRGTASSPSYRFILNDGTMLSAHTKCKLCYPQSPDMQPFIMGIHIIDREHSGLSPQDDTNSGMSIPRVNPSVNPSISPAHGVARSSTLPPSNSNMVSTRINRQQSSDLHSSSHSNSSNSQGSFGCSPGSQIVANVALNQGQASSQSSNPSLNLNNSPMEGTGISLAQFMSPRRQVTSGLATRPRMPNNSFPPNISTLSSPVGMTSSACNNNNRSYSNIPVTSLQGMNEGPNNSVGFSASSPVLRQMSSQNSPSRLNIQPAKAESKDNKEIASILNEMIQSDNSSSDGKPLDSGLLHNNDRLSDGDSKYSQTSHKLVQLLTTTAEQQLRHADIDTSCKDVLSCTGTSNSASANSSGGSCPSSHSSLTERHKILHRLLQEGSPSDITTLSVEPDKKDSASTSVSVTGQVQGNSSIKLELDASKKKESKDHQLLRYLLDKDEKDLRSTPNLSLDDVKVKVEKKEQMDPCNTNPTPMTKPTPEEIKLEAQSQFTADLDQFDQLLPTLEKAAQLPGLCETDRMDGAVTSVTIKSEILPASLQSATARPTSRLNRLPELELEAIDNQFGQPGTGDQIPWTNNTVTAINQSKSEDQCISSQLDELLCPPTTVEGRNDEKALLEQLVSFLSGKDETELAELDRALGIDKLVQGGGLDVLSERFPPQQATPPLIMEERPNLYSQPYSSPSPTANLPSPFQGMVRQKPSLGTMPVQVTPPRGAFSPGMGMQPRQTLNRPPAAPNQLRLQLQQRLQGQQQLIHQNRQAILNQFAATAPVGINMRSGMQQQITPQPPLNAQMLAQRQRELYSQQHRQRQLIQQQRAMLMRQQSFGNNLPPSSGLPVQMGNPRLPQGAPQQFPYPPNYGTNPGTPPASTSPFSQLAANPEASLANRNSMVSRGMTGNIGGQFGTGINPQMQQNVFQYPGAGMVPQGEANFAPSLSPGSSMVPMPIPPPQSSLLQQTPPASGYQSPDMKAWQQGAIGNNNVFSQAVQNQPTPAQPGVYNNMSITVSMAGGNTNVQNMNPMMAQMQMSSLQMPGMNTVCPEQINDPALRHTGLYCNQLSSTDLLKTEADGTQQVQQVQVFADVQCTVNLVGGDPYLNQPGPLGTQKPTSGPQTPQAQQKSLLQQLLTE
Peroxisome proliferator-activated receptor gamma/Nuclear receptor coactivator 2, sequence (P37231 whole entry): as the sequence (P37231 whole entry) above
Peroxisome proliferator-activated receptor gamma/Nuclear receptor coactivator 2, sequence (Q15596 whole entry, further chain): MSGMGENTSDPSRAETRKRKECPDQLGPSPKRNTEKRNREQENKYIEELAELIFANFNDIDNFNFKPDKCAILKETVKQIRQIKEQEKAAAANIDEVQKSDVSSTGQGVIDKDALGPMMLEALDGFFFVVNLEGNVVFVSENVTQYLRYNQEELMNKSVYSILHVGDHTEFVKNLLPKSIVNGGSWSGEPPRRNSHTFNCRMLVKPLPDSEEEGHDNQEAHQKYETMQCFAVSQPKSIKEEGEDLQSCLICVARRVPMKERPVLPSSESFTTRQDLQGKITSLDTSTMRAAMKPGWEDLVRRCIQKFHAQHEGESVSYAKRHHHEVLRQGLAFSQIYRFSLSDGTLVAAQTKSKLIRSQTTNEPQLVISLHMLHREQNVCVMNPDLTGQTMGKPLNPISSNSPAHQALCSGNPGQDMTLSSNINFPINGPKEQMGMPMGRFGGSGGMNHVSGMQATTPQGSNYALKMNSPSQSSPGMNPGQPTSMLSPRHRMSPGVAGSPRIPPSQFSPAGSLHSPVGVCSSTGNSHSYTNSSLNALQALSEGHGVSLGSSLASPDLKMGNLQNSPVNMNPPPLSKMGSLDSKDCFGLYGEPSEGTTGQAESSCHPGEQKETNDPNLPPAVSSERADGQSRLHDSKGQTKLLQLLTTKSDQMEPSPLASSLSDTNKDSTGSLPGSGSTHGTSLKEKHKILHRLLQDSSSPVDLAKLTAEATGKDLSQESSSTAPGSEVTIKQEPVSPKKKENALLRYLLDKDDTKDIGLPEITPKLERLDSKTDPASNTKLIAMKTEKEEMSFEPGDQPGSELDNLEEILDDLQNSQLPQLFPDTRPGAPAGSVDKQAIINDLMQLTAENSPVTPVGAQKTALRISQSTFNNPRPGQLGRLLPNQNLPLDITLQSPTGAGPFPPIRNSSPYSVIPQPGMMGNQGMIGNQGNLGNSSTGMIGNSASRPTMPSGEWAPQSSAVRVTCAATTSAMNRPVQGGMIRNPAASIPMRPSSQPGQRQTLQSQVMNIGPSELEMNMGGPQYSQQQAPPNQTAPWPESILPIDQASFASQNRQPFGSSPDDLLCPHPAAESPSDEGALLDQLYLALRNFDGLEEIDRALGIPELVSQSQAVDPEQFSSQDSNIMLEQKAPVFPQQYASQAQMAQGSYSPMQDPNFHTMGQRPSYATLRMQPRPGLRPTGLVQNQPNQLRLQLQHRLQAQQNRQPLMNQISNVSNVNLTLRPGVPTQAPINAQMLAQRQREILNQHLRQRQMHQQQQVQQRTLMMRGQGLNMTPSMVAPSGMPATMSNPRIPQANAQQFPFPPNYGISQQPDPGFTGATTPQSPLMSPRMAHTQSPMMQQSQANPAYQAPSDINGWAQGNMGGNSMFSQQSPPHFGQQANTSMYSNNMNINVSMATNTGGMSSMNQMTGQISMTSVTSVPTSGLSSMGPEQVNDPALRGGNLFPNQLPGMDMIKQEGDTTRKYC
Bcl-2-like protein 1, sequence (Q07817 whole entry): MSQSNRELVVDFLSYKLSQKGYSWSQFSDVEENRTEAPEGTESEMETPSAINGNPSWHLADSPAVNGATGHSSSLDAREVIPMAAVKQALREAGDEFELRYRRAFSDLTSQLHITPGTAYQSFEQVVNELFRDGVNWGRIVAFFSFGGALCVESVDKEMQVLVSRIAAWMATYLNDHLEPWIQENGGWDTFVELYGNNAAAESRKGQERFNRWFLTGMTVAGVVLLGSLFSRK
FAD-linked sulfhydryl oxidase ALR, sequence (P55789 whole entry): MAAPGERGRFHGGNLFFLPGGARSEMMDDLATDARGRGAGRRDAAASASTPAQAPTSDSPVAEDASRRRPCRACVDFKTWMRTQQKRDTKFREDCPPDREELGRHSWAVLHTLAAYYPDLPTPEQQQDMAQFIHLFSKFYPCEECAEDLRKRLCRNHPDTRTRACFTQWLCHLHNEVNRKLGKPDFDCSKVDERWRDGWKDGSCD

For the compound `O=C1C(Cl)=C(N2CCOCC2)C(=O)N1c1ccc(Cl)c(Cl)c1`, the values for the IC50 in [1], in [2] and in [3] were > 100 µM (not active), 1.51 µM (active) and 1.29 µM (active), respectively.

Regarding `COc1ccccc1N1CCN(C2=C(Cl)C(=O)N(c3ccc(Cl)c(Cl)c3)C2=O)CC1`, the figures for the IC50 in experiment [1], in [2] and in experiment [3] were > 100 µM (not active), 9.57 µM (active) and 6.25 µM (active), respectively.

For `Cc1ccc(Nc2nnc(SC3CCOC3=O)s2)cc1` (stereo unspecified), the figures for the IC50 in experiment [4], in [5] and in experiment [6] were > 59.6 µM (not active), 1.94 µM (active) and > 73.5 µM (not active), respectively.

For the compound `CN(C)c1ccc(Nc2nc(N)c3ccccc3n2)cc1`, the EC50 in experiment [7] is 10.6 µM (active); in [8], 12.6 µM (active); in experiment [12], 0.234 µM (active); in experiment [13], 10.1 µM (inconclusive); in experiment [15], > 150 µM (inconclusive); in experiment [16], > 60 µM (inconclusive). The results for the concentration for a half-maximal effect (EC50) in [17] and in experiment [20] were 1.37 µM (active) and 11.8 µM (active), respectively. In addition, the AC50 in experiment [9] is 1.89 µM (active); in [11] it was 24.5 µM (active); in [14], 23.7 µM (active); in experiment [18], 22.6 µM (active); in experiment [19], 1.57 µM (active). Further, the IC50 in experiment [10] is listed as 19.1 µM (not active).

Regarding `CCc1nc(SCc2ccc(F)cc2)[nH]c(=O)c1C#N`, the EC50 in [21], in experiment [23] and in [24] was > 79.4 µM (not active) each time. Further, the AC50 in experiment [22] is 0.622 µM (active).

Take `Cc1cc[n+](-c2[n-]c(=O)sc2/C=N/NC(=O)CCn2c3ccccc3c3ccccc32)cc1`: the IC50 in experiment [25] was 14.1 µM (not active); in experiment [26], 27.6 µM (not active).

For the compound `CCC1CCc2c(sc(NC(=O)C3CC=CCC3C(=O)O)c2C#N)C1` (stereo unspecified), the IC50 in experiment [4] was > 59.6 µM (not active); in experiment [5] it was < 1 µM (active); in experiment [6], > 73.5 µM (not active).

`C/C(=N\Nc1nc2ccccc2s1)c1ccc(Br)s1`: the EC50 in experiment [21], in experiment [23] and in [24] was > 79.4 µM (not active) throughout. In [27], the AC50 was 3.85 µM (active).
